From patent US20060069132A1, “Azolecarboxamide herbicides” (priority 2004, published 2006)

Tests used:
cocklebur = assay: Test B pre-/postemergence herbicide test; format: in vivo, Xanthium strumarium; settings: for Plant response rating (0 to 100 scale), Cocklebur: 0 is no effect, 100 is complete control, preemergence
How it was run: (§1)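 Herbicidal effect was judged by eye on a 0–100 scale after plants stood 13 to 15 days in the greenhouse following pre- or postemergence treatment with surfactant-containing formulations.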

barnyardgrass [1] = assay: Test B pre-/postemergence herbicide test; format: in vivo, Echinochloa crus-galli; settings: for Plant response rating (0 to 100 scale), Barnyardgrass: 0 is no effect, 100 is complete control, preemergence; for Barnyardgrass plant response rating: scale 0 (no effect) to 100 (complete control)
How it was run: as §1

blackgrass = assay: Test B postemergence herbicide test; format: in vivo, Alopecurus myosuroides
How it was run: (§2)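 Treated at 2-leaf (paddy) or 1–4-leaf, 2–18 cm (postemergence); greenhouse 13–15 d; visual score vs control, 0 none to 100 complete control; dash = not tested.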

corn = assay: Test B pre-/postemergence herbicide test; format: in vivo, Zea mays; settings: for Plant response rating (0 to 100 scale), Corn: 0 is no effect, 100 is complete control, preemergence
How it was run: (§3)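 Formulation: non-phytotoxic solvent mix with surfactant. Timing: preemergence on seed and postemergence on 2–18 cm plants, applied concurrently. Readout after 13–15 d greenhouse: visual 0–100 control rating against controls.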

Surinam grass = assay: Test B pre-/postemergence herbicide test; format: in vivo, Urochloa decumbens; settings: for Plant response rating (0 to 100 scale), Surinam Grass: 0 is no effect, 100 is complete control, preemergence
How it was run: as §3

morningglory = assay: Test B pre-/postemergence herbicide test; format: in vivo, Ipomoea coccinea; settings: for Plant response rating (0 to 100 scale), Morningglory: 0 is no effect, 100 is complete control, preemergence
How it was run: as §1

pigweed = assay: Test B pre-/postemergence herbicide test; format: in vivo, Amaranthus retroflexus; settings: for Plant response rating (0 to 100 scale), Pigweed: 0 is no effect, 100 is complete control, preemergence
How it was run: as §3

wild oat = assay: Test B postemergence herbicide test; format: in vivo, Avena fatua
How it was run: (§4)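 After treating 2-leaf paddy plants or 2–18 cm postemergence plants (1 to 4 leaves) with formulated chemical, researchers kept them in a greenhouse for 13–15 days. Effects were judged visually versus controls: 0 indicates none, 100 total control.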

rice = assay: Test B flooded paddy test; format: in vivo, Oryza sativa; settings: 1000 g ai/ha, scale 0 to 100 (0 no effect, 100 complete control)
How it was run: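 Scale 0–100: zero equals no visible effect, 100 complete control, judged by eye relative to controls. Timing: 13 to 15 days in greenhouse post-treatment. Growth stage at spraying: two leaves (paddy) or one to four leaves, 2–18 cm (postemergence).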

giant foxtail = assay: Test B pre-/postemergence herbicide test; format: in vivo, Setaria faberi; settings: for Plant response rating (0 to 100 scale), Foxtail, Giant: 0 is no effect, 100 is complete control, preemergence
How it was run: as §3

large crabgrass = assay: Test B pre-/postemergence herbicide test; format: in vivo, Digitaria sanguinalis; settings: for Plant response rating (0 to 100 scale), Crabgrass, Large: 0 is no effect, 100 is complete control, preemergence
How it was run: as §3

ducksalad = assay: Test B flooded paddy test; format: in vivo, Heteranthera limosa; settings: 1000 g ai/ha, scale 0 to 100 (0 no effect, 100 complete control)
How it was run: as §2

barnyardgrass [2] = assay: Test B flooded paddy test; format: in vivo, Echinochloa crus-galli; settings: 1000 g ai/ha, scale 0 to 100 (0 no effect, 100 complete control)
How it was run: as §2

lambsquarters = assay: Test B pre-/postemergence herbicide test; format: in vivo, Chenopodium album; settings: for Plant response rating (0 to 100 scale), Lambsquarters: 0 is no effect, 100 is complete control, preemergence
How it was run: as §3

[3] = test system: small flower umbrella sedge; assay: Test B flooded paddy test; format: in vivo, Cyperus difformis; settings: 1000 g ai/ha, scale 0 to 100 (0 no effect, 100 complete control)
How it was run: as §2

wheat = assay: Test B postemergence herbicide test; format: in vivo, Triticum aestivum; set-up: key to Wheat plant response rating: 0 = no effect, 100 = complete control
How it was run: as §4

[4] = 125 g ai/ha, visual rating, scale 0 (no effect) to 100 (complete control), postemergence
[5] = Postemergence, 500 g ai/ha, scale 0 (no effect) to 100 (complete control)
[6] = 500 g ai/ha, scale 0 to 100, 0 no effect, 100 complete control, preemergence
[7] = postemergence, 125 g ai/ha, scale 0 to 100

Structure (SMILES) | Plant response rating (0 to 100 scale), Cocklebur (cocklebur; 125 g ai/ha) | Cocklebur plant response rating (cocklebur; [5]) | Plant response rating (0 to 100 scale), Barnyardgrass (barnyardgrass [1]; 125 g ai/ha) | Barnyardgrass plant response rating (barnyardgrass [1]; Postemergence, 500 g ai/ha) | Blackgrass plant response rating (blackgrass; [5]) | Plant response rating (0 to 100 scale), Corn (corn; 125 g ai/ha) | Corn plant response rating (corn; [5]) | Plant response rating (0 to 100 scale), Surinam Grass (Surinam grass; 125 g ai/ha) | Surinam Grass plant response rating (Surinam grass; [5]) | Plant response rating (0 to 100 scale), Morningglory (morningglory; 125 g ai/ha) | Morningglory plant response rating (morningglory; [5]) | Plant response rating (0 to 100 scale), Pigweed (pigweed; 125 g ai/ha) | Pigweed plant response rating (pigweed; [5]) | Oat, Wild plant response rating (wild oat; [5]) | Rice plant response rating (rice) | Plant response rating (0 to 100 scale), Foxtail, Giant (giant foxtail; 125 g ai/ha) | Foxtail, Giant plant response rating (giant foxtail; [5]) | Plant response rating (0 to 100 scale), Crabgrass, Large (large crabgrass; 125 g ai/ha) | Crabgrass, Large plant response rating (large crabgrass; [5]) | Ducksalad plant response rating (ducksalad) | other results
CCc1nn(C(C)(C)C)nc1C(=S)Nc1cccc(C(=S)N(C)C)c1 [Compound 396] | 40 | 60 | 90 | 20 | 30 | 80 | 10 | 90 | 30 | 60 | 60 | 90 | 70 | 30 | 70 | 100 | 30 | 100 | 20 | 70 | Cocklebur plant response rating (cocklebur; [4]): 20; Barnyardgrass plant response rating (barnyardgrass [1]; 125 g ai/ha, visual rating, postemergence): 10; Blackgrass plant response rating (blackgrass; [4]): 10; Corn plant response rating (corn; [4]): 10; Surinam Grass plant response rating (Surinam grass; [4]): 20; Morningglory plant response rating (morningglory; [4]): 20; Pigweed plant response rating (pigweed; [4]): 40; Oat, Wild plant response rating (wild oat; [4]): 0; Foxtail, Giant plant response rating (giant foxtail; [4]): 20; Crabgrass, Large plant response rating (large crabgrass; [4]): 20; Barnyardgrass plant response rating (barnyardgrass [2]): 90; Plant response rating (0 to 100 scale), Lambsquarters (lambsquarters; 125 g ai/ha): 100; Lambsquarters plant response rating (lambsquarters; [4]): 80; Lambsquarters plant response rating (lambsquarters; [5]): 100; Sedge, Umbrella plant response rating [3]: 80; Wheat plant response rating (wheat; [4]): 10; Wheat plant response rating (wheat; [6]): 100; Wheat plant response rating (wheat; [5]): 20
C=CCNC(=O)c1cccc(NC(=O)c2nn(C(C)(C)C)nc2CC)c1 [Compound 414] | 20 | 70 | 90 | 30 | 50 | 70 | 40 | 90 | 60 | 10 | 70 | 100 | 100 | 40 | 80 | 90 | 40 | 100 | 70 | 90 | Cocklebur plant response rating (cocklebur; [7]): 60; Barnyardgrass plant response rating (barnyardgrass [1]; Postemergence, 125 g ai/ha): 30; Blackgrass plant response rating (blackgrass; [7]): 40; Corn plant response rating (corn; [7]): 30; Surinam Grass plant response rating (Surinam grass; [7]): 20; Morningglory plant response rating (morningglory; [7]): 20; Pigweed plant response rating (pigweed; [7]): 90; Oat, Wild plant response rating (wild oat; [7]): 30; Foxtail, Giant plant response rating (giant foxtail; [7]): 30; Crabgrass, Large plant response rating (large crabgrass; [7]): 30; Barnyardgrass plant response rating (barnyardgrass [2]): 80; Plant response rating (0 to 100 scale), Lambsquarters (lambsquarters; 125 g ai/ha): 100; Lambsquarters plant response rating (lambsquarters; [5]): 100; Lambsquarters plant response rating (lambsquarters; [7]): 80; Sedge, Umbrella plant response rating [3]: 90; Wheat plant response rating (wheat; [6]): 100; Wheat plant response rating (wheat; [5]): 20; Wheat plant response rating (wheat; [7]): 10
